A word on the inhibition: it is the change of the read-out against control, counted positive when it falls.

Experimental findings from patent US9145351B2, “Azole derivatives, methods for producing the same, intermediate thereof, agro-horticultural agents” (KUREHA CORPORATION, priority 2009, dated 2015) are described below.

Holding throughout (assay type): cell-based
In experiment [1] the test system is Pseudocercoporella herpotrichoides. As to the kind of experiment: Plate medium fungicidal assay, wheat eye spot P.h (Experimental Example 5). In short, it runs like this: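 Compound in DMSO mixed into PDA agar for plates at 50 mg/L and 5 mg/L, inoculated with a 4 mm mycelial plug of Pseudocercosporella herpotrichoides. Colony diameter compared with untreated plates: % mycelial growth inhibition = 100(dc−dt)/dc, scored on a 5-grade scale.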

The subject of experiment [2] is Fusarium graminearum. As to the kind of experiment: microbe, parasite or virus in culture. The following applies: for inhibition at 5 µg/mL / inhibition at 50 µg/mL: Fusarium graminearum.
For experiment [3], the system named is Sclerotinia sclerotiorum. As to the kind of experiment: Plate medium fungicidal assay, Sclerotinia rot S.s (Experimental Example 5). To be noted: for inhibition at 5 µg/mL / inhibition at 50 µg/mL: Sclerotinia sclerotiorum. In short, it runs like this: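 A 4 mm mycelial plug was placed on PDA plates containing compound at 50 mg/L and 5 mg/L, added from DMSO solution. Colony diameters were compared with untreated plates, % mycelial growth inhibition was R=100(dc−dt)/dc, and scores fell into 5 grades.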

In experiment [4] the test system is Botritis cinerea. The experiment in a line: Plate medium fungicidal assay, gray mold B.c (Experimental Example 5). The method in brief: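 Compounds in DMSO were incorporated into PDA plate medium at 50 mg/L and 5 mg/L, then inoculated with 4 mm mycelial plugs of Botrytis cinerea. Colony diameter versus untreated plates gave % mycelial growth inhibition, R=100(dc−dt)/dc, scored on a 5-grade scale.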

Experiment [5] deals with Rhynchosporium secalis. As to the kind of experiment: Plate medium fungicidal assay, barley leaf blotch R.sec (Experimental Example 5). To be noted: for inhibition at 5 µg/mL / inhibition at 50 µg/mL: Rhynchosporium secalis. The method in brief: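 Compound in DMSO mixed into PDA plate medium at 50 mg/L and 5 mg/L; 4 mm mycelial plug of the fungus inoculated. Colony diameter compared with untreated plates gives % mycelial growth inhibition R=100(dc−dt)/dc, scored on a 5-grade scale.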

The test system of experiment [6] is Giberella fujikuroi. The experiment in a line: Plate medium fungicidal assay, rice bakanae disease G.f (Experimental Example 5). In short, it runs like this:
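Gibberella fujikuroi mycelial plugs (4 mm) placed on PDA plates containing compound at 50 mg/L and 5 mg/L, added from DMSO solution. Colony diameter compared with untreated plates as % inhibition = 100(dc−dt)/dc, then scored in 5 grades.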

[7] abbreviates: plate medium containing compound at 5 mg/L.
Where [8] appears, read: plate medium containing compound at 50 mg/L.
[9] abbreviates: plate medium containing compound at 5 mg/L, read-out: Growth inhibition grade, P.h.
Where [10] appears, read: plate medium containing compound at 50 mg/L, read-out: Growth inhibition grade, P.h.
Where [11] appears, read: read-out: Growth inhibition grade, F.g.
The mark [12] stands for this setting: plate medium containing compound at 5 mg/L, read-out: Growth inhibition grade, S.s.
Where [13] appears, read: plate medium containing compound at 50 mg/L, read-out: Growth inhibition grade, S.s.
Where [14] appears, read: plate medium containing compound at 5 mg/L, read-out: Growth inhibition grade, B.c.
Setting [15] is: plate medium containing compound at 50 mg/L, read-out: Growth inhibition grade, B.c.
[16] abbreviates: plate medium containing compound at 5 mg/L, read-out: Growth inhibition grade, R.sec.
[17] abbreviates: plate medium containing compound at 50 mg/L, read-out: Growth inhibition grade, R.sec.
[18] abbreviates: plate medium containing compound at 5 mg/L, read-out: Growth inhibition grade, G.f.
[19] abbreviates: plate medium containing compound at 50 mg/L, read-out: Growth inhibition grade, G.f.
Setting [20] is: plate medium, 5 mg/L, read-out: growth inhibition grade P.h.
[21] abbreviates: plate medium, 50 mg/L, read-out: growth inhibition grade P.h.
Setting [22] is: read-out: growth inhibition grade F.g.
Setting [23] is: plate medium, 5 mg/L, read-out: growth inhibition grade S.s.
Setting [24] is: plate medium, 50 mg/L, read-out: growth inhibition grade S.s.
Setting [25] is: plate medium, 5 mg/L, read-out: growth inhibition grade B.c.
Where [26] appears, read: plate medium, 50 mg/L, read-out: growth inhibition grade B.c.
Setting [27] is: plate medium, 5 mg/L, read-out: growth inhibition grade R.sec.
[28] abbreviates: plate medium, 50 mg/L, read-out: growth inhibition grade R.sec.
Setting [29] is: plate medium, 5 mg/L, read-out: growth inhibition grade G.f.
[30] abbreviates: plate medium, 50 mg/L, read-out: growth inhibition grade G.f.

Read-outs that look alike come from different tables or passages of the source. A value given as a limit tells only on which side of the number the result lay.

`C[C@]1(CCl)CC[C@@H](Cc2ccccc2F)[C@]1(O)Cn1cncn1` (relative stereo) [Compound I-86]: the “Growth inhibition grade, P.h” value in experiment [1] (setting [7]) and in experiment [1] (setting [8]) was 5 (% Mycerial growth inhibition of 80% or higher) each time. In addition, the “Growth inhibition grade, F.g” value in experiment [2] (setting [7]) and in experiment [2] (setting [8]) was 5 (% Mycerial growth inhibition of 80% or higher) throughout. In addition, the “Growth inhibition grade, S.s” value in experiment [3] (setting [7]) and in experiment [3] (setting [8]) was 5 (% Mycerial growth inhibition of 80% or higher) throughout. Moreover, the “Growth inhibition grade, B.c” value in experiment [4] (setting [7]) and in experiment [4] (setting [8]) was 5 (% Mycerial growth inhibition of 80% or higher) in each case. Moreover, the “Growth inhibition grade, R.sec” value in experiment [5] (setting [7]) and in experiment [5] (setting [8]) was 5 (% Mycerial growth inhibition of 80% or higher) throughout. The “Growth inhibition grade, G.f” value in experiment [6] (setting [7]) and in experiment [6] (setting [8]) was 5 (% Mycerial growth inhibition of 80% or higher) each time.

Turning to `O[C@]1(Cn2cncn2)[C@H](Cc2ccc(Cl)cc2)CC[C@@H]1C(F)(F)F` (racemic) [Compound I-65, (1RS,2SR,5SR)-5-(4-chlorobenzyl)-2-trifluoromethyl-1-(1H-1,2,4-triazol-1-ylmethyl)cyclopentanol], the inhibition at 5 µg/mL in experiment [1] (setting [9]) is 40 to 60%; in experiment [2] (setting [11]) it was 60 to 80%; in experiment [3] (setting [12]) it was 40 to 60%; in experiment [4] (setting [14]), 60 to 80%; in experiment [5] (setting [16]) it was 40 to 60%; in experiment [6] (setting [18]), 60 to 80%. The inhibition at 50 µg/mL in experiment [1] (setting [10]), in experiment [2] (setting [11]), in experiment [3] (setting [13]), in experiment [4] (setting [15]), in experiment [5] (setting [17]) and in experiment [6] (setting [19]) was more than 80% throughout.

With `Cc1ccc(C[C@@H]2CC[C@](C)(CCl)[C@@]2(O)Cn2cncn2)cc1` (relative stereo) [Compound I-80], the “Growth inhibition grade, P.h” value in experiment [1] (setting [7]) and in experiment [1] (setting [8]) was 5 (% Mycerial growth inhibition of 80% or higher) each time. In addition, the “Growth inhibition grade, F.g” value in experiment [2] (setting [7]) and in experiment [2] (setting [8]) was 5 (% Mycerial growth inhibition of 80% or higher) in each case. Moreover, the “Growth inhibition grade, S.s” value in experiment [3] (setting [7]) and in experiment [3] (setting [8]) was 5 (% Mycerial growth inhibition of 80% or higher) in each case. The “Growth inhibition grade, B.c” value in experiment [4] (setting [7]) and in experiment [4] (setting [8]) was 5 (% Mycerial growth inhibition of 80% or higher) each time. Moreover, the “Growth inhibition grade, R.sec” value in experiment [5] (setting [7]) and in experiment [5] (setting [8]) was 5 (% Mycerial growth inhibition of 80% or higher) throughout. For the same compound, the “Growth inhibition grade, G.f” value in experiment [6] (setting [7]) and in experiment [6] (setting [8]) was 5 (% Mycerial growth inhibition of 80% or higher) throughout.

As for `C[C@@]1(CCl)CC[C@H](Cc2ccc(Cl)cc2)[C@]1(O)Cn1cncn1` (racemic) [Compound I-401, (1RS,2RS,5RS)-5-(4-chlorobenzyl)-2-chloromethyl-2-methyl-1-[1,2,4]triazol-1-ylmethylcyclopentanol], the inhibition at 5 µg/mL in experiment [1] (setting [20]), in experiment [2] (setting [22]), in experiment [3] (setting [23]), in experiment [4] (setting [25]), in experiment [5] (setting [27]) and in experiment [6] (setting [29]) was more than 80% in each case. Also, the inhibition at 50 µg/mL in experiment [1] (setting [21]), in experiment [2] (setting [22]), in experiment [3] (setting [24]), in experiment [4] (setting [26]), in experiment [5] (setting [28]) and in experiment [6] (setting [30]) was more than 80% throughout.

As for `CC[C@]1(CCl)CC[C@@H](Cc2ccccc2)[C@]1(O)Cn1cncn1` (relative stereo) [Compound I-97], the “Growth inhibition grade, P.h” value in experiment [1] (setting [7]) and in experiment [1] (setting [8]) was 5 (% Mycerial growth inhibition of 80% or higher) each time. Besides, the “Growth inhibition grade, F.g” value in experiment [2] (setting [7]) and in experiment [2] (setting [8]) was 5 (% Mycerial growth inhibition of 80% or higher) in each case. Moreover, the “Growth inhibition grade, S.s” value in experiment [3] (setting [7]) and in experiment [3] (setting [8]) was 5 (% Mycerial growth inhibition of 80% or higher) in each case. For the same compound, the “Growth inhibition grade, B.c” value in experiment [4] (setting [7]) and in experiment [4] (setting [8]) was 5 (% Mycerial growth inhibition of 80% or higher) in each case. The “Growth inhibition grade, R.sec” value in experiment [5] (setting [7]) and in experiment [5] (setting [8]) was 5 (% Mycerial growth inhibition of 80% or higher) each time. Also, the “Growth inhibition grade, G.f” value in experiment [6] (setting [7]) and in experiment [6] (setting [8]) was 5 (% Mycerial growth inhibition of 80% or higher) each time.

As to `C[C@]1(CCl)CC[C@@H](Cc2ccc(Cl)cc2)[C@]1(O)Cn1cncn1` (racemic) [Compound I-1, (1RS,2SR,5SR)-5-(4-chlorobenzyl)-2-chloromethyl-2-methyl-1-(1H-1,2,4-triazol-1-ylmethyl)cyclopentanol], the inhibition at 5 µg/mL in experiment [1] (setting [9]), in experiment [1] (setting [20]), in experiment [2] (setting [11]), in experiment [2] (setting [22]), in experiment [3] (setting [12]) and in experiment [3] (setting [23]) was more than 80% in each case. For the same compound, the inhibition at 5 µg/mL in experiment [4] (setting [14]), in experiment [4] (setting [25]), in experiment [5] (setting [16]), in experiment [5] (setting [27]), in experiment [6] (setting [18]) and in experiment [6] (setting [29]) was more than 80% each time. Moreover, the inhibition at 50 µg/mL in experiment [1] (setting [10]), in experiment [1] (setting [21]), in experiment [2] (setting [11]), in experiment [2] (setting [22]), in experiment [3] (setting [13]) and in experiment [3] (setting [24]) was more than 80% in each case. Besides, the inhibition at 50 µg/mL in experiment [4] (setting [15]), in experiment [4] (setting [26]), in experiment [5] (setting [17]), in experiment [5] (setting [28]), in experiment [6] (setting [19]) and in experiment [6] (setting [30]) was more than 80% each time.

Turning to `C[C@]1(CCl)CC[C@@H](Cc2ccc(F)cc2F)[C@]1(O)Cn1cncn1` (relative stereo) [Compound I-88], the “Growth inhibition grade, P.h” value in experiment [1] (setting [7]) and in experiment [1] (setting [8]) was 5 (% Mycerial growth inhibition of 80% or higher) in each case. Besides, the “Growth inhibition grade, F.g” value in experiment [2] (setting [7]) and in experiment [2] (setting [8]) was 5 (% Mycerial growth inhibition of 80% or higher) in each case. The “Growth inhibition grade, S.s” value in experiment [3] (setting [7]) and in experiment [3] (setting [8]) was 5 (% Mycerial growth inhibition of 80% or higher) each time. The “Growth inhibition grade, B.c” value in experiment [4] (setting [7]) and in experiment [4] (setting [8]) was 5 (% Mycerial growth inhibition of 80% or higher) each time. The “Growth inhibition grade, R.sec” value in experiment [5] (setting [7]) and in experiment [5] (setting [8]) was 5 (% Mycerial growth inhibition of 80% or higher) in each case. For the same compound, the “Growth inhibition grade, G.f” value in experiment [6] (setting [7]) and in experiment [6] (setting [8]) was 5 (% Mycerial growth inhibition of 80% or higher) each time.
